# Assay results taken from patent US20240041977A1, “ANNEXIN A1 N-TERMINAL PEPTIDE FORMULATIONS AND METHODS” (ResoTher Pharma A/S, priority 2020, published 2024).
# Marks after values point to notes of the source that are not given here. Ends that are not written are not given here.
# Experiment: ThT assay lag-time (fibrillation propensity, physical stability)
# Type: physicochemical
# Description: ThT is widely used to visualize and quantify the presence of misfolded peptide and protein aggregates called amyloids or fibrils. ThT is a fluorescent molecule that binds to inter molecular beta-sheets in peptides and proteins (here AnxA1). […] A weaker fluorescence intensity is indicative of less amyloids or fibrils present with fewer intermolecular beta-sheets where ThT can bind. Some peptides have a tendency to form fibrils and amyloids and the propensity is dependent on the formulation conditions in an unpredictable manor. Fibrillation is a stochastic process and to avoid long analysis times and both false negatives and positive results, shear stress is introduced to the sample by rigorous rotation in microtiter plates while continuously monitoring the fluorescence emission at approximately 486 nm. An increase in the fluorescence is an indication of the formation of amyloids or fibrils and the time it takes for the fluorescence to start increasing is known as the lag-time. A faster (short) lag-time is an indication of higher propensity for the peptide to degrade by formation of fibrils or amyloids. A ThT fluorescence of 50 AU at t=0 is considered noise or background. Lag time is reported as the time it takes for the signal intensity to exceed 50 AU. All samples for the ThT assay were filtered through cellulose acetate filters ([…], Ø=13 mm, rinsed with MilliQ® water prior to filtration). For each sample, 20 μL ThT of a 1 mM solution was added to 1 mL peptide solution. From this sample mixture, 200 μL was transferred into n wells in a 96 well microtiter plate (n=3-6). 96-well NUNC plates Bottom optics and Sealing tape, Thermo Scientific™ Nunc™ Sealing Tapes, was used. Lag-time is reported as an average of n samples. A fluorescence plate reader (CLARIOstar® Plus, BMG Labtech) was used for the experiments with the following setting: Excitation wavelength 450 nm; Dichroic filter 465 nm; Emission wavelength 486 nm; Focal height 3.5 mm; Gain 1000; […]; […]; Number of flashes per well 20; Temperature 25° C.; Shake mode orbital, Frequency of 300 rpm, 200 s, and shake after each cycle. If possible, the average of all ThT data replicates are used for ThT lag-time determination. In case of very stochastic data, worst-case data is used for lag-time evaluation. ThT lag-time was determined using either a 1-step or 2-step sigmoidal curve.
substance,measurement,setting,value
AMVSEFLKQAWFIENEEQEYVQTLKSSKGGPGSAVSPYPTFNPSSDV-NH2 [AnxA1],fibrillation in ThT assay,"6.4 mg/mL, possibly 5.0 mg/ml, and above, 0.9% NaCl",already degraded by the formation of fibrils at time zero
same,lag-time,"10 mM tris, pH 7.5, AnxA1 1.7 mg/mL containing 5% mannitol or sorbitol",> 65 h
same,Lag-time,"AnxA1 1.4 mg/mL, mannitol 4 wt.%, sucrose 2.5 wt.%, glycyl-glycine 50 mM, pH 8.5",>65 h
same,Lag-time,"AnxA1 1.4 mg/mL, sucrose 10 wt.%, glycyl-glycine 50 mM, pH 8.5",>65 h
same,Avg. lag-time,"AnxA1 1.5 mg/mL, NaCl 0.9%, ZnCl2 0.77 mM, pH N/A",1.8 h
same,Avg-lag time,"AnxA1 1.5 mg/mL, glucose 5 wt.%, pH 7.1",21.7 h
same,Lag-time,"AnxA1 1.5 mg/mL, mannitol 4 wt.%, sucrose 2.5 wt.%, glycyl-glycine 10 mM, pH 7.5",>65 h
same,Lag-time,"AnxA1 1.5 mg/mL, mannitol 4 wt.%, sucrose 2.5 wt.%, glycyl-glycine 50 mM, pH 7.6",>65 h
same,Lag-time,"AnxA1 1.5 mg/mL, mannitol 5 wt.%, glycyl-glycine 10 mM, pH 7.4, analysis timeframe 65 hours",>65* hours
same,Lag-time,"AnxA1 1.5 mg/mL, mannitol 5 wt.%, glycyl-glycine 50 mM, pH 7.5",>65 h
same,Lag-time,"AnxA1 1.5 mg/mL, sucrose 10 wt.%, Tris 10 mM, pH 7.5",42.8 h
same,Lag-time,"AnxA1 1.5 mg/mL, sucrose 10 wt.%, glycyl-glycine 10 mM, pH 8.3",>65 h
same,Avg. lag-time,"AnxA1 1.6 mg/mL in Milli Q water, no salt, pH 7.5, maximum assay time 50 hours",>50.0* h
same,Avg. lag-time,"AnxA1 1.6 mg/mL in Milli Q water, no salt, pH 7.6, maximum assay time 50 hours",>50.0* h
same,Avg. lag-time,"AnxA1 1.6 mg/mL, 0.9% NaCl in Milli Q water, pH 7.1",28.3 h
same,Avg. lag-time,"AnxA1 1.6 mg/mL, CaCl2 0.77 mM, pH 7.2",12.5 h
same,Avg. lag-time,"AnxA1 1.6 mg/mL, CaCl2 0.77 mM, pH 7.4",10.8 h
same,Avg. lag-time,"AnxA1 1.6 mg/mL, NaCl 0.9%, CaCl2 0.77 mM, pH 7.1",5.4 h
same,Lag-time,"AnxA1 1.6 mg/mL, mannitol 4 wt.%, sucrose 2.5 wt.%, glycyl-glycine 10 mM, pH 8.4",>65 h
same,Lag-time,"AnxA1 1.6 mg/mL, mannitol 5 wt.%, glycyl-glycine printed as 'e' mM, pH 8.3",>65 h
same,Lag-time,"AnxA1 1.6 mg/mL, mannitol 5 wt.%, glycylglycine 10 mM, pH 8.0, no increase in fluorescence within 65 hours",> 65* hours
same,Avg-lag time,"AnxA1 1.6 mg/mL, mannitol 5 wt.%, pH 6.7, no increase in fluorescence within 65 hours",> 65* h
same,Lag-time,"AnxA1 1.6 mg/mL, sucrose 10 wt.%, glycyl-glycine 50 mM, pH 7.6",64.7 h
same,Lag-time,"AnxA1 1.6 mg/mL, sucrose 10 wt.%, glycylglycine 10 mM, pH 8.0, no increase in fluorescence within 65 hours",> 65* hours
same,Avg-lag time,"AnxA1 1.6 mg/mL, sucrose 10 wt.%, pH 7.2, no increase in fluorescence within 65 hours",> 65* h
same,Avg-lag time,"AnxA1 1.6 mg/mL, trehalose 10 wt.%, pH 7.2",33.3 h
same,Avg. lag-time,"AnxA1 1.7 mg/mL in Milli-Q water, pH 7.4, no increase in fluorescence within 65 hours",> 65* h
same,Lag-time,"AnxA1 1.7 mg/mL, mannitol 5 wt.%, Tris 10 mM, pH 7.5, no increase in fluorescence within 65 hours",> 65* hours
same,Lag-time,"AnxA1 1.7 mg/mL, sorbitol 5 wt.%, Tris 10 mM, pH 7.6, no increase in fluorescence within 65 hours",> 65* hours
same,Lag-time,"AnxA1 1.7 mg/mL, sorbitol 5 wt.%, glycylglycine 10 mM, pH 8.0, no increase in fluorescence within 65 hours",> 65* hours
same,Avg. lag-time,"AnxA1 3.1 mg/mL in Milli-Q water, pH 7.4",50.4 h
same,Lag-time,"AnxA1 3.1 mg/mL, mannitol 5 wt.%, glycylglycine 10 mM, pH 8.0, no increase in fluorescence within 65 hours",> 65* hours
same,Avg. lag-time,"AnxA1 3.2 mg/mL in Saline (0.9% NaCl), pH 7.4",5.6 h
same,Avg. lag-time,"AnxA1 3.2 mg/mL, 0.9% NaCl in Milli Q water, pH 7.4",9.3 h
same,Avg. lag-time,"AnxA1 3.2 mg/mL, NaCl 0.9%, pH 7.2",9.7 h
same,Lag-time,"AnxA1 3.2 mg/mL, mannitol 5 wt.%, glycylglycine 10 mM, pH 8.0, no increase in fluorescence within 65 hours",> 65* hours
same,Lag-time,"AnxA1 3.3 mg/mL, mannitol 5 wt.%, glycylglycine 10 mM, pH 8.0, no increase in fluorescence within 65 hours",> 65* hours
same,Lag-time,"AnxA1 4.0 mg/mL, mannitol 5 wt.%, glycyl-glycine 10 mM, pH 8.2",>65 h
same,Lag-time,"AnxA1 4 mg/mL, tonicity 100%, NaCl 0.9 wt%, positive control sample in 0.9% saline",8.2* hours
same,Avg. lag-time,"AnxA1 4.6 mg/mL in Milli-Q water, pH 7.4",61.4 h
same,Lag-time,"AnxA1 4.6 mg/mL, sorbitol 5 wt.%, glycylglycine 10 mM, pH 8.0, no increase in fluorescence within 65 hours",> 65* hours
same,Lag-time,"AnxA1 4.6 mg/mL, sucrose 10 wt.%, glycyl-glycine 30 mM, pH 8.0",39 h
same,Lag-time,"AnxA1 4.7 mg/mL, mannitol 5 wt.%, Tris 10 mM, pH 7.5",10.7 h
